Results as given in publication PMC8831520, “Small molecule SWELL1 complex induction improves glycemic control and nonalcoholic fatty liver disease in murine Type 2 diabetes” (Nature Communications, 2022).

Assays:
[1] = Tolerability of chronic i.p. dosing; type: in vivo, mouse; conditions: daily i.p. injections for up to 8 weeks
Protocol: (§1) All compounds were dissolved in Kolliphor® EL (Sigma, #C5135).

SWELL1 protein = tested on: T1, SWELL1 protein; assay: SWELL1 protein in skeletal muscle and liver of treated T2D mice; type: in vivo, mouse
T1 construct: from tissue; host or cells: soleus muscle of HFD-T2D mice; liver of T2D KKA^y mice
Protocol: (§2) Adipocytes were washed twice in ice-cold phosphate buffer saline and lysed in RIPA buffer (150 mM NaCl, 20 mM HEPES, 1% NP-40, 5 mM EDTA, pH 7.4) with proteinase/phosphatase inhibitors (Roche). The cell lysate was further sonicated in 10 s cycle intervals 2–3 times and centrifuged at 18,407×g for 30 min at 4 °C and repeated one more time to remove the excess fat. The supernatant was collected and further estimated for protein concentration using a DC protein assay kit (Bio-Rad). Fat and liver tissues were homogenized and suspended in RIPA buffer with inhibitors and further processed in a similar fashion as described above. HUVECs were also prepared in a similar fashion except the lysates were spun only once to remove the cells debris to obtain the clear supernatant. For islets, either human or mouse islets were washed twice with phosphate buffer saline (PBS) and lysed using RIPA buffer containing protease and phosphatase inhibitors. The lysate was further clarified by freezing in liquid nitrogen for about 10 s for three cycles. The supernatant was collected from the whole lysate centrifuged at 16,260×g for 20 min at 4 °C. […] The images were further analyzed for band intensities using ImageJ software. […]

cadaveric human islets = assay: GSIS perifusion of palmitate-treated human islets; type: cell-based; conditions: 10 µM for 4 days prior to and during 1 mM palmitate 16 h, washed off during GSIS
Protocol: Cadaveric human islets were obtained from the Integrated Islet Distribution Program (IIDP), Prodo Laboratories, and the Alberta Diabetes Institute Islet Core. The human islets obtained from the Integrated Islet Distribution program and Prodo laboratories were exempt from Institutional Review Board approval under 45 CRR 46.101 (b) category (4) and 45 CFR 46.102 h, respectively. Human islets were obtained from the Alberta Diabetes Institute IsletCore at the University of Alberta in Edmonton (http://www.bcell.org/adi-isletcore.html) with the assistance of the Human Organ Procurement and Exchange (HOPE) program, Trillium Gift of Life Network (TGLN), and other Canadian organ procurement organizations. Islet isolation was approved by the Human Research Ethics Board at the University of Alberta (Pro00013094). All donors’ families gave informed consent for the use of pancreatic tissue in research. Human islets were cultured in RPMI media with 2% FBS overnight. […] Insulin concentrations were further determined using a commercially available ELISA kit (Mercodia). The area under the curve (AUC) for the high-glucose-induced insulin release was calculated for time points between 50 to 74/84 min. At the completion of the experiment, islets were further lysed by the addition of RIPA buffer and the amount of insulin was detected by ELISA.

[2] = tested on: T2, SWELL1 protein in adipose tissue; assay: SWELL1 protein in adipose tissue of treated T2D mice; type: in vivo, mouse
T2 construct: from tissue; host or cells: eWAT of HFD-fed C57BL/6 mice; inguinal fat of KKA^y mice
Protocol: as §1, §2

CCCCC1(C2CCCC2)Cc2cc(OCCCC(=O)O)c(Cl)c(Cl)c2C1=O (stereo not drawn) [SN-401, 4-((2-butyl-6,7-dichloro-2-cyclopentyl-1-oxo-2,3-dihydro-1H-inden-5-yl)oxy)butanoic acid]
tolerability [1]: no overt signs of toxicity | SWELL1 induction in skeletal muscle (SWELL1 protein; HFD-T2D mice (18 weeks HFD), 5 mg/kg i.p. 4 days): trend toward SN-401 mediated SWELL1 induction | hepatic SWELL1 protein (SWELL1 protein; T2D KKAy mice, 5 mg/kg i.p. 5 days): does not induce | glucose-stimulated insulin secretion after palmitate (cadaveric human islets): normalized | SWELL1 expression in adipose tissue ([2]; HFD-fed T2D mice, 5 mg/kg i.p.): twofold | SWELL1 expression in adipose tissue ([2]; KKAy T2D mice, 5 mg/kg i.p. × 5 days): threefold
